Laboratory results as given in patent EP4703359A1 (Shanghai Simr Biotechnology Co., Ltd., priority 2023, dated 2024).

Molecular target: T1, α2-GABAA receptor (Homo sapiens, UniProt P18507+P47869)
T1 construct: expressed in transfected cells
Experiment: Radioactive ligand (3H-flunitrazepam) competitive binding assay, BZD site of membrane proteins of α2-GABAAR-HEK293 cells
Settings: competition with 1 nM 3H-flunitrazepam; HEK293 membranes expressing α2, β3, γ2 subunits; Ki calculated from IC50; read-out: α2 Ki
Text: (§1) The α subunit, β subunit, and γ subunit are indispensable for forming a fully functional GABAA receptor. In this example, HEK293 cells stably expressing α2-GABAA receptors (α2-GABAAR) were constructed and screened respectively via liposome transfection (Felgner, P.L., et al. Proceedings of the National Academy of Sciences, 1987, 84: 7413-7417). The α2-GABAAR-HEK293 cell model co-expresses the α2 subunit (protein sequence referenced under GenBank accession number: NM_000807.4), β3 subunit (protein sequence referenced under GenBank accession number: NM_000814.5), and γ2 subunit (protein sequence referenced under GenBank accession number: NM_000816.3).
(§2) The above cell lines were subcultured. α2-GABAAR-HEK293 cells were amplified for testing the affinity of compounds to the benzodiazepine (BZD) site of GABAA receptors. Some of the α2-GABAAR-HEK293 cells in suspension during subculturing were plated on glass slides pre-treated with Poly-D-Lysine for electrophysiological testing (method reference: Patent CN 107344936 A, paragraph 0586).
The affinity of the compound for the α2-GABAA receptor was determined by competing with ^3H-flunitrazepam (isotope ^3H-labeled flunitrazepam) for binding to the BZD site of membrane proteins in HEK293 cells stably expressing human α2-GABAAR.
Membrane preparation: Cells were suspended in 50 mM Tris-HCl buffer (pH=7.4), homogenized on ice using a homogenizer for 20 seconds with 10 repetitions, and centrifuged at 4°C, 1000g for 10 minutes. The supernatant was collected, and the above steps were repeated. The supernatant was centrifuged at 4°C (33,800 × g; Thermo, rotor: A27-8x50) for 60 minutes, and the pellet was resuspended in Tris buffer (50 mM Tris-HCl, 10 mM MgCl2, 0.5 mM EDTA, 10% glycerol). The protein concentration was determined using the bicinchoninic acid (BCA) protein assay based on the copper ion reduction method (BCA kit purchased from Pierce (Annoron)). Aliquots of 1 mL were prepared and stored at -80°C.
Radioactive ligand competitive binding assay: This assay was conducted in a 200 µL system (96-well plate), containing 100 µL of cell membrane. The concentration of ^3H-flunitrazepam was 1 nM, and the concentration of the test compound ranged from […]. Flumazenil was used as a control. The low signal control well (Low Control, LC) was added with 1 µL of 2 mM flumazenil (final concentration 10 µM), while the high signal control well (High Control, HC) was added with 1 µL of dimethyl sulfoxide. The final concentration of the target membrane protein was 5 µg/well. All test compound stock solutions were prepared as 10 mM solutions in dimethyl sulfoxide. The working concentration of the samples was prepared by diluting all samples to 0.2 mM with dimethyl sulfoxide, followed by a 4-fold serial dilution to obtain a total of 8 concentration gradients. The 96-well plate was sealed with sealing film and then incubated on a shaker at room temperature for 1 hour. The GF/C filter plate was also soaked with a soaking buffer (0.3% PEI (polyethyleneimine, purchased from: Sigma-Aldrich, model: P314), stored at 4°C) for at least 0.5 hours. After the incubation was completed, the mixture was collected onto a GF/C filter plate using a cell harvester and washed four times with wash buffer (50 mM Tris-HCl, pH 7.4, stored at 4°C). After drying in a 50°C oven for 1 hour, the dried GF/C filter plate was sealed at the bottom with a film. The residual radioactivity on the filter membrane was detected using liquid scintillation counting. Each well was filled with 50 µL of scintillation fluid and sealed. Readings were taken using a Microbeta^2 (microplate counter, purchased from PerkinElmer, model: CNLL0153). The inhibitory activity of the test sample on the binding of ^3H-flunitrazepam to GABAA receptor membrane protein was calculated. […]

| SMILES | Ki |
| --- | --- |
| CCCNC(=O)c1nc2c(-c3c(F)cccc3OC)nccn2c1N [Example 135, 3-amino-8-(2-fluoro-6-methoxyphenyl)-N-propylimidazo[1,2-a]pyrazine-2-carboxamide] | 0.0811 µM |
| CCCNC(=O)c1nc2c(-c3cccc(Cl)c3F)cccn2c1N [Example 66, 3-Amino-8-(3-chloro-2-fluorophenyl)-N-propylimidazo[1,2-a]pyridine-2-carboxamide] | 0.00244 µM |
| CCCNC(=O)c1nc2c(-c3cccc(C(F)(F)F)c3)cccn2c1N [Example 47, 3-Amino-N-propyl-8-(3-(trifluoromethyl)phenyl)imidazo[1,2-a]pyridine-2-carboxamide] | 0.0352 µM |

Molecular target: T1, α2-GABAA receptor
Experiment: Whole-cell patch-clamp electrophysiology, positive allosteric modulatory activity in α2-GABAAR-HEK293 cells
Type: cell-based
Settings: compound 100 nM; GABA 0.10 to 0.11 µM (approximately EC7-8); normalized to reference compound CVL-865 (= 100%)
Text: as §1, §2
The positive modulatory activity of the test drug on the α2-GABAA receptor was assessed using electrophysiological methods. The specific approach is as follows:
With regards to the concentration of the compound, the final concentration of all compounds used in the screening was 100 nM. For cell lines expressing α2-GABAA receptors, the GABA concentration was 0.10 to 0.11 µM (approximately EC7-8). Electrophysiological experiments were conducted using the whole-cell patch-clamp technique, which can be referenced to the method reported in the literature (Nickolls, S. A., et al. *British Journal of Pharmacology*, 2018, 175: 708-725). The composition of the extracellular solution (ECS) for electrophysiology was as follows: 150 mM NaCl, 5 mM KCl, 2.5 mM CaCl2, 1 mM MgCl2, 10 mM HEPES, and 10 mM glucose (pH 7.4). The intracellular solution (ICS) for electrophysiology was formulated as follows: 140 mM CsCl, 11 mM EGTA, 10 mM HEPES, 2 mM CaCl2, 1 mM MgCl2, 4 mM MgATP, and 2 mM TEA (pH 7.3). GABA (γ-aminobutyric acid) powder was dissolved in pure water to prepare a stock solution, which was subsequently diluted in ECS. The compound was initially dissolved in dimethyl sulfoxide to prepare a 4 mM stock solution, followed by stepwise dilution into GABA-ECS at corresponding concentrations. All solutions were freshly prepared prior to electrophysiological testing.
Electrophysiological signals were acquired using an EPC 10 amplifier and PatchMaster software (HEKA) or an Axon 700B amplifier and Clampex software (AXON). The recording electrode was pulled from borosilicate glass, with an electrode resistance of 4 to 6 MΩ. Extracellular administration was performed using the ALA-VC-8PG™ system. A single independently growing cell was selected. After forming a tight seal between the glass electrode and the cell membrane, the membrane was ruptured to establish the whole-cell configuration. The cell membrane potential was clamped at -60 mV and recorded in Gap-free mode. During the test, extracellular fluid was first applied externally for approximately 20 seconds. After the baseline (Iprebaseline) was stabilized, the extracellular solution was switched to GABA-ECS. At this point, the current induced by GABA (Igaba) can be detected. After approximately 10 to 20 seconds, once the current had stabilized, the extracellular solution was switched to a mixture of the compound and GABA-ECS until the current induced by both the compound and GABA (Itreatment) could be detected. Finally, the solution was switched to extracellular fluid, and the recording was terminated after 20 to 40 seconds. Only cells with a stable baseline, an absolute control current magnitude (Igaba - Iprebaseline) greater than 40 pA, and a relatively stable current within 10 to 20 seconds were used for compound testing. […]

| SMILES | α2-GABAAR Positive allosteric modulatory activity |
| --- | --- |
| COc1cccc(F)c1-c1c(F)ccn2c(N)c(C(=O)NCC=C(F)F)nc12 [Example 131, 3-Amino-N-(3,3-difluoroallyl)-7-fluoro-8-(2-fluoro-6-methoxyphenyl)imidazo[1,2-a]pyridine-2-carboxamide] | 82% |

Same assay, conditions: compound 100 nM; GABA 0.10 to 0.11 µM (approximately EC7-8); normalized to reference compound CVL-865 (= 100%); read-out: α2-GABAAR Positive allosteric modulatory activity

| SMILES | Emax at 0.1 µM |
| --- | --- |
| CCCNC(=O)c1nc2c(-c3ccnc(C)c3)cccn2c1N [Example 86, 3-Amino-8-(2-methylpyridin-4-yl)-N-propylimidazo[1,2-a]pyridine-2-carboxamide] | 73% |
| CCCNC(=O)c1nc2c(-c3cncc(C)c3)cccn2c1N [Example 87, 3-Amino-8-(5-methylpyridin-3-yl)-N-propylimidazo[1,2-a]pyridine-2-carboxamide] | 48% |
| CCCNC(=O)c1nc2c(-c3c(F)ccc(Cl)c3OC)cccn2c1N [Example 80, 3-Amino-8-(2-fluoro-6-methoxyphenyl-5-chloro)-N-propylimidazo[1,2-a]pyridine-2-carboxamide] | 77% |
| CCCNC(=O)c1nc2c(-c3cccnc3F)cccn2c1N [Example 90, 3-Amino-8-(2-fluoropyridin-3-yl)-N-propylimidazo[1,2-a]pyridine-2-carboxamide] | 60% |
| CCCNC(=O)c1nc2c(-c3cncc(C#N)c3)cccn2c1N [Example 88, 3-Amino-8-(5-cyanopyridin-3-yl)-N-propylimidazo[1,2-a]pyridine-2-carboxamide] | 63% |
| CCCNC(=O)c1nc2c(-c3cccc(N4CCOC4=O)c3)cccn2c1N [Example 41, 3-Amino-8-(3-(2-oxooxazolidin-3-yl)phenyl)-N-propylimidazo[1,2-a]pyridine-2-carboxamide] | 30% |
| COc1cccc(F)c1-c1cccn2c(N)c(C(=O)Nc3ccccn3)nc12 [Example 14, 3-Amino-8-(2-fluoro-6-methoxyphenyl)-N-(pyridin-2-yl)imidazo[1,2-a]pyridine-2-carboxamide] | 54% |
| COc1cccc(F)c1-c1cccn2c(N)c(C(=O)NC34CC(C3)C4)nc12 [Example 11, 3-Amino-N-(bicyclo[1.1.1]pent-1-yl)-8-(2-fluoro-6-methoxyphenyl)imidazo[1,2-a]pyridine-2-carboxamide] | 27% |
| CCCNC(=O)c1nc2c(-c3cc4cn(C)nc4cc3OC)cccn2c1N [Example 96, 3-Amino-8-(6-methoxy-2-methyl-2H-indazol-5-yl)-N-propylimidazo[1,2-a]pyridine-2-carboxamide] | 52% |
| CCn1cnc2c(-c3ccc(F)c(-c4ccc(S(=O)(=O)CC)cc4OC)c3)cnnc21 [CVL-865, reference compound] | 100% |
| COCCNC(=O)c1nc2c(-c3c(F)cccc3OC)cccn2c1N [Example 24, 3-Amino-8-(2-fluoro-6-methoxyphenyl)-N-(2-methoxyethyl)imidazo[1,2-a]pyridine-2-carboxamide] | 39% |
| CCCNC(=O)c1nc2c(-c3cc4oc(=O)n(C)c4cc3OC)cccn2c1N [Example 93, 3-Amino-8-(5-methoxy-3-methyl-2-oxo-2,3-dihydrobenzo[d]oxazol-6-yl)-N-propylimidazo[1,2-a]pyridine-2-carboxamide] | 62% |

Second part, the molecule after the results:

| Emax at 0.1 µM | SMILES |
| --- | --- |
| 60% | CCCNC(=O)c1nc2c(-c3c(F)cccc3OC)nccn2c1N [Example 135, 3-amino-8-(2-fluoro-6-methoxyphenyl)-N-propylimidazo[1,2-a]pyrazine-2-carboxamide] |
| 141% | CCCNC(=O)c1nc2c(-c3cc(F)ccc3OC)c(F)ccn2c1N [Example 110, 3-Amino-7-fluoro-8-(5-fluoro-2-methoxyphenyl)-N-propylimidazo[1,2-a]pyridine-2-carboxamide] |
| 85% | [2H]c1ccn2c(N)c(C(=O)NCCC)nc2c1-c1c(F)cccc1OC [Example 150, 3-Amino-8-(2-fluoro-6-methoxyphenyl)-N-propylimidazo[1,2-a]pyridine-7-deuterio-2-carboxamide] |
| 44% | CCCNC(=O)c1nc2c(-c3cnoc3C)cccn2c1N [Example 141, 3-Amino-8-(5-methyl-1,2-oxazol-4-yl)-N-propylimidazo[1,2-a]pyridine-2-carboxamide] |
| 45% | CCCNC(=O)c1nc2c(-c3cccnc3C)cccn2c1N [Example 142, 3-Amino-8-(2-methylpyridin-3-yl)-N-propylimidazo[1,2-a]pyridine-2-carboxamide] |
| 99% | CCCNC(=O)c1nc2c(-c3cccc(C#N)c3)c(F)ccn2c1N [Example 126, 3-Amino-8-(3-cyanophenyl)-7-fluoro-N-propylimidazo[1,2-a]pyridine-2-carboxamide] |
| 100% | CCCNC(=O)c1nc2c(-c3c(F)ccc4c3OCC4)cccn2c1N [Example 106, 3-Amino-8-(6-fluoro-2,3-dihydrobenzofuran-7-yl)-N-propylimidazo[1,2-a]pyridine-2-carboxamide] |
